Data taken from patent US12605382B2, “Pharmaceutical composition for preventing, alleviating, or treating cancer containing 2,6-dichloro-4-(4-(4-hydroxycyclohexylamino)-7H- pyrrolo[2,3-d]pyrimidin-5-yl)phenol as active ingredient” (JBKLAB CO., LTD., priority 2021, dated 2026).

How the values were obtained:
OVCAR-3 = assay: Cell viability alone and in combination with cisplatin; format: cell-based, Human
Description: (§1) Human ovarian cancer cell lines (SKOV-3 and OVCAR-3) were treated with control (no treatment), 0.1 μM of the compound of Example 1, 1 μM of cisplatin, and 0.1 μM of the compound of Example 1/1 μM of cisplatin, and the cell viability of SKOV-3 and OVCAR-3 was confirmed.

SKOV-3 = assay: as above; format: cell-based, Human
Description: as §1

MDA-MB-453 = assay: Cell viability, breast cancer cell line; format: cell-based; settings: MDA-MB-453, 24 hours, dose dependently
Description: (§2) FIGS. 4A-4C show the cell viability of MDA-MB-231, MDA-MB-453, and BT-20 after 24 hours of treatment with the compound of Example 1. As shown in FIGS. 4A-4C, it was confirmed that the cell viability was suppressed not only in general breast cancer cell lines, but also in TNBC cell lines dose dependently.

[1] = system: 4T1 murine triple negative breast cancer cells; assay: Lung metastasis in triple-negative breast cancer allograft mouse model; format: in vivo, BALB/c mice; settings: 31st day
Description: 4T1 murine triple negative breast cancer cells (6×10^5 cells) were injected into the hind limbs of 6-week-old immune-competent BALB/c mice. Seven days after injection, after confirming consistent tumor growth, 10 mice from each group were selected and used in subsequent experiments.
The experimental groups consisted of a control group (no treatment), a radiotherapy group, a group treated with the compound of Example 1, and a group treated with a combination of the compound of Example 1 and radiotherapy. Each treatment was carried out for 31 days after tumor implantation.
Radiation treatment was performed using electron beams, and a total of 24 Gy was irradiated three times, once every two days for one week (Days 10, 12, and 14) (8 Gy×3). The compound of Example 1 was administered intravenously at a dose of 10 mg/kg once every 2 or 3 days (Days 10, 12, 14, 17, 19, and 21) for a total of 6 times over 2 weeks. On the days when radiation therapy and drug administration were conducted simultaneously, the compound of Example 1 was administered after confirming that the mice had recovered from anesthesia 4 hours after radiation therapy.
Mice were prepared in the same manner as in Example 8, and the lungs of the mice were removed on the 31st day after tumor injection, and the results of observing lung metastasis are shown in FIG. 13.

A549 = assay: Cytotoxicity on cancer cell lines; format: cell-based; settings: A549, dose dependently
Description: (§3) The cytotoxicity of the compound of Example 1 against various cancer cell lines was evaluated through a process similar to the evaluation of liver cancer cell line inhibition described above. Etoposide, sold as an anticancer agent, was used as a control group drug.

SK-MEL-2 = assay: Cytotoxicity on cancer cell lines; format: cell-based; settings: SK-MEL-2, dose dependently
Description: as §3

HCT15 = assay: Cytotoxicity on cancer cell lines; format: cell-based; settings: HCT15, dose dependently
Description: as §3

SK-OV-3 = assay: Cytotoxicity on cancer cell lines; format: cell-based; settings: SK-OV-3, dose dependently
Description: as §3

MDA-MB-231 = assay: Cell viability assay (WST-8), TNBC cell line; format: cell-based, human; settings: dose dependently
Description: An experiment was performed to confirm the growth inhibitory effect of the compound of Example 1, the active ingredient of the pharmaceutical composition of the present invention, on breast cancer cell lines through cell viability assay.
Specifically, the cell viability assay was performed as follows. BT20, a human-derived breast cancer cell line, and MDA-MB-231, a TNBC cell line, were each seeded in 96-well plates at the density of 5×10^3 cells/well and cultured for 24 hours. Then, I-bet 762 and the compound of Example 1 were treated thereto at different concentrations and cultured for 48 hours. At the end of the culture, 100 μl of WST-8 solution was added to each well of the plate, and the absorbance was measured with a microplate reader using a 450 nm optical filter to measure the formazan produced by the reducing factors in living cells.
as §2

[2] = system: tumor tissues (MDA-MB-231); assay: H&E staining of tumor tissue, cell necrosis areas; format: in vivo, BALB/c-nude mice; settings: T4, T5 and T6 groups
Description: (§4) An experiment was performed to confirm the tumor necrosis effect of the compound of Example 1, the active ingredient of the pharmaceutical composition of the present invention, by measuring the number of apoptotic bodies in tumors and H&E staining of the tumor tissues in BALB/c-nude mice injected with cancer cell lines.
Then, the sections were stained with hematoxylin and eosin, and cell necrosis areas were observed.

M1 TAM = assay: Flow cytometric analysis (FACS) of tumor tissue, 4T1 allograft model; format: in vivo, BALB/c mice
Description: (§5) The tumor tissues from each mouse were subjected to single cell isolation, followed by flow cytometric analysis (FACS) to confirm the immunomodulatory effect.
(§6) Specifically, the spleen and tumor of the mouse were extracted 31 days after tumor cell injection in the same manner as in Example 8. After the tumor tissue was excised, it was mechanically processed by fine chopping using a sterilized razor blade, and then treated with DNase (0.1 mg/ml) and collagenase (1 mg/ml), respectively, and reacted at 36° C. for 30 minutes to obtain a single cell suspension. To analyze infiltrating leukocytes after isolation of single cells from the tumor tissue, […] cells per FACS tube were stained with FITC, PE, PerCP/Cy5.5, and APC fluorescence using CD3 antibody, CD8b antibody, CD4 antibody, CD11b antibody, F4/80 antibody, and CD206 antibody. For each stained sample, the fraction of CD8+ cytotoxic T cells was calculated using BD Bioscience FACSCalibur machines. Analysis of the FACS results was performed using FlowJo software, version 10.

CD8+ T cells = assay: as above; format: in vivo, BALB/c mice; settings: 31 days
Description: as §5, §6

M2 TAM = assay: as above; format: in vivo, BALB/c mice
Description: as §5, §6

[3] = system: tumor tissues (MDA-MB-231); assay: Number of apoptotic bodies in tumor tissues; format: in vivo, BALB/c-nude mice; settings: for number of apoptotic body: sum of five areas at ×400
Description: as §4
Specifically, to measure the number of apoptotic bodies in the tumor tissues of the T4, T5, and T6 groups of Experimental Example 1, five areas where the tumor tissues were growing were randomly selected and the number of apoptotic bodies was measured at ×400 magnification. The sum of the measurements was calculated, expressed as individual values, and statistically compared using GraphPad Prism 5.

[4] = 0.1 μM Example 1 combined with 1 μM cisplatin

Compound: Oc1c(Cl)cc(-c2c[nH]c3ncnc(N[C@H]4CC[C@H](O)CC4)c23)cc1Cl [Example 1, (trans)-2,6-dichloro-4-(4-(4-hydroxycyclohexylamino)-7H-pyrrolo[2,3-d]pyrimidin-5-yl)phenol]
- cell viability (OVCAR-3; [4]): further inhibited (synergistic effect)
- cell viability (OVCAR-3; 0.1 μM alone): suppressed
- cell viability (SKOV-3; [4]): further inhibited (synergistic effect)
- cell viability (SKOV-3; 0.1 μM alone): suppressed
- cell viability (MDA-MB-453): suppressed
- lung metastasis compared to control group ([1]; alone, 10 mg/kg intravenously): significantly reduced metastasis
- lung metastases compared to each administration alone ([1]; combined with radiation (8 Gy×3)): significantly (P<0.05) reduced lung metastases
- toxicity to cancer cell line (A549): excellent toxicity
- toxicity to cancer cell line (SK-MEL-2): excellent toxicity
- toxicity to cancer cell line (HCT15): excellent toxicity
- toxicity to cancer cell line (SK-OV-3): excellent toxicity
- cell viability (MDA-MB-231; MDA-MB-231, 24 hours): suppressed
- cell viability (MDA-MB-231; MDA-MB-231, 48 hours): inhibited the cell viability
- areas of tissue necrosis compared to NC group (H&E) [2]: more areas of tissue necrosis
- M1 TAM (M1 TAM; alone): significantly (P<0.01) increased
- M1 TAM (M1 TAM; combined with radiation): increase
- proportion of CD8+ T cells in tumor (CD8+ T cells; alone): increased
- proportion of CD8+ T cells in tumor compared to each administration alone (CD8+ T cells; combined with radiation): significantly increased
- M2 TAM (M2 TAM; alone): significantly (P<0.01) decreased
- M2 TAM (M2 TAM; combined with radiation): decrease
- number of apoptotic bodies compared to NC (Negative Control) ([3]; T4, T5 and T6 groups, dose dependently): higher
- number of apoptotic body ([3]; T4: 5 mg/kg once i.v.): 9.6 ± 4.7
- number of apoptotic body ([3]; T5: 10 mg/kg once i.v.): 9.2 ± 4.6
- number of apoptotic body ([3]; T6: 20 mg/kg once i.v.): 13.6 ± 7.4
